The target of the assay is T1, delF508-CFTR (Homo sapiens, UniProt P13569, DEL508-508).
T1 construct: expressed in transfected cells
Kind of assay: Measurement of delF508-CFTR-HRP surface expression in CFBE41o- cells. Particulars: for Emax: CFBE41o-, read-out: DelF508-CFTR-HRP Amax %; for EC50: HRP-tagged delF508-CFTR surface expression, CFBE41o- cells, 24 h with compound, 10-point curve, highest concentration 10 μM. In kind it is cell-based. An excerpt: Measurement of deIF508-CFTR-HRP Surface Expression in CFBE41o-Cells
This assay quantifies the cell surface expressions of the mutant CFTR channel using an extracellular HRP tag.
A cellular assay was developed to measure surface expression of horseradish peroxidase (HRP) tagged delF508-CFTR in the human bronchial epithelial immortalized CFBE41o-cell line (Phuan, P. W., et al, (2014) Molecular Pharmacology 86:42-51). Specifically, the HRP sequence was inserted into the fourth extracellular loop of delF508-CFTR and stably expressed in CFBE41o-cells. Cells were seeded in 384 well plate at a density of 5000 cells/well and incubated at 37° C. for 12 to 24 hours in medium (Gibco MEM #11095, 10% FBS, 10 mM HEPES, […], 200 μg/mL G418, 3 μg/mL Puromycin). The delF508-CFTR-HRP expression was induced with 500 ng/mL doxycycline (Sigma D-9891, dissolved in H2O and sterile filtered) in medium and the cells were incubated at 37° C. for 48 h. Old medium was removed and fresh medium was added containing 500 ng/mL doxycycline and unknown test compound at required test concentration in DMSO, not exceeding 0.5% final DMSO concentration. The highest concentration tested was 10 μM with a 10-point concentration response curve using a 3-fold dilution. After addition of compounds, the cells were incubated for 24 h at 37° C. On the final day, cells were washed four times in PBS containing 1 mM MgCl2 and 0.1 mM CaCl2. HRP-Substrate (SuperSignal ELISA Pico, Fisher #37069) 20 μl/well was added and the luminescence signal was determined (Viewlux, Perkin Elmer). Light was emitted upon addition of exogenous HRP-Substrate only when delF508-CFTR-HRP reached the cell surface and the HRP tag was accessible to the HRP-Substrate (note: HRP-Substrate cannot cross the lipid bilayer to reach delF508-CFTR-HRP misfolded within the cell).
The median activity for the lowest concentration of the compounds on each assay plate was calculated and this value was used to normalize the signal for each well on the respective plate. Three replicates at each concentrations for every compound were run to determine one EC50. The median value was determined and used to calculate compound activities as described below. Effective half maximal values (EC50) were calculated for each compound by performing logistic regression on measured dose-response data points using the equation: […]
where “Y” is the observed activity, “Bottom” is the lowest observed value, “Top” is the highest observed value, and the “Hill coefficient” gives the largest absolute value of the slope. The curve fitting is carried out by a curve fitting program implemented at GNF using Matlab (Mathworks).
The dose response curves also were used to calculate Fold Change (FC) using the equation: […]
Compound efficacy relative to the reference compound 3-(6-(1-(2,2-difluorobenzo[d][1,3]dioxol-5-yl)cyclopropane-1-carboxamido)-3-methylpyridin-2-yl)benzoic acid was determined using the following formula: […]

[1] abbreviates: efficacy relative to reference compound 3-(6-(1-(2,2-difluorobenzo[d][1,3]dioxol-5-yl)cyclopropane-1-carboxamido)-3-methylpyridin-2-yl)benzoic acid.

T1 sequence (P13569 with tags, fused parts or gaps DEL508-508): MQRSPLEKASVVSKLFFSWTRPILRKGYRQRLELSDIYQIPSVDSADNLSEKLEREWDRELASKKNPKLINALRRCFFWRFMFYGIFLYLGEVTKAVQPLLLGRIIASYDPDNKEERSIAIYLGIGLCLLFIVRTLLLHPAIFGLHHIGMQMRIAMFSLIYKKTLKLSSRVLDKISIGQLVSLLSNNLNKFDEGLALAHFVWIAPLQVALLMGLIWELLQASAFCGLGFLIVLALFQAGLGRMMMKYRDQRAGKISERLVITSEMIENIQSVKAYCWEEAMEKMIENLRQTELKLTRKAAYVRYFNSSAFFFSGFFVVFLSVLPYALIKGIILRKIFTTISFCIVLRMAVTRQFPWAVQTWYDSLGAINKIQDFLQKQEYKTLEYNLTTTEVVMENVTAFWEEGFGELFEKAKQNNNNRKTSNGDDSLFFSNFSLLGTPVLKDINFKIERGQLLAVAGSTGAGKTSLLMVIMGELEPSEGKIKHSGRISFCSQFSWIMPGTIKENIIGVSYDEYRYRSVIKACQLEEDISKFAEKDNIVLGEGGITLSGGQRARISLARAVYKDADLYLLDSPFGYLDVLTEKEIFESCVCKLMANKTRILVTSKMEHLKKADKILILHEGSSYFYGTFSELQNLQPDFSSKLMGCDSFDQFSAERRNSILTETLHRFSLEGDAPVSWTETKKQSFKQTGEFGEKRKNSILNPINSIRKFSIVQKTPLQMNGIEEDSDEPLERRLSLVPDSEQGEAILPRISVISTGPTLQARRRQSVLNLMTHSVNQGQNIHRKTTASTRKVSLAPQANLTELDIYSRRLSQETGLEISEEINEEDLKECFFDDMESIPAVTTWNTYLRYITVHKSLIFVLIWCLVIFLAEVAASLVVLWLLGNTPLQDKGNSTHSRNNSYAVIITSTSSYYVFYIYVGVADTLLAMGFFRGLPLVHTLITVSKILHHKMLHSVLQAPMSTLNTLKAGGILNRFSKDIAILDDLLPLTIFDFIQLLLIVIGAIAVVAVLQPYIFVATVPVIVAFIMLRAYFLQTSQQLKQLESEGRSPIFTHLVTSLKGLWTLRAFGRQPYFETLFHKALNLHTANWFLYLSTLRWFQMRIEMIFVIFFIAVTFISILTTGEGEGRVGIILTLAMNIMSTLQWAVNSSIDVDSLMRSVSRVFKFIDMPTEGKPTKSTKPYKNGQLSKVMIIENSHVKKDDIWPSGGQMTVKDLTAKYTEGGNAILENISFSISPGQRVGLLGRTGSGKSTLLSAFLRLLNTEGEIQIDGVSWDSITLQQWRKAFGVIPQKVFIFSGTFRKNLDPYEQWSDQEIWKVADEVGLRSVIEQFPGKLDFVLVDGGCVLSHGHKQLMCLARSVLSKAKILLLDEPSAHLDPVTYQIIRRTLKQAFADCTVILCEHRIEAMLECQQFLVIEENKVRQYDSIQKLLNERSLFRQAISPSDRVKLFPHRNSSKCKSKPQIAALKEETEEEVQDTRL

`CN1CCCCCCN(C)c2ncccc2-c2nc(ccc2C(F)(F)F)NS(=O)(=O)c2cccc1n2` [Compound 8, 6,13-dimethyl-2^3-(trifluoromethyl)-4-thia-3,6,13-triaza-1(3,2),2,5(2,6)-tripyridinacyclotridecaphane 4,4-dioxide]: the EC50 was found to be 410 nM. For the same compound, under setting [1], the Emax is 564%.

For the compound `CCN1CCCCCc2ccccc2-c2nc(ccc2C(F)(F)F)NS(=O)(=O)c2cccc1n2` [Compound 18, 6-ethyl-2^3-(trifluoromethyl)-4-thia-3,6-diaza-2,5(2,6)-dipyridina-1(1,2)-benzenacycloundecaphane 4,4-dioxide], the EC50 amounted to 645 nM. Under setting [1], the Emax stood at 802%.

As to `O=C(O)CCN1CCCCCCc2ccc(F)cc2-c2nc(ccc2C(F)(F)F)NS(=O)(=O)c2cccc1n2` [Compound 85, 3-(1^5-fluoro-4,4-dioxido-2^3-(trifluoromethyl)-4-thia-3,6-diaza-2,5(2,6)-dipyridina-1(1,2)-benzenacyclododecaphane-6-yl)propanoic acid], the EC50 was 714 nM.

Take `O=S1(=O)Nc2ccc(C(F)(F)F)c(n2)-c2ccccc2CCCCCN(CCN2CCNCC2)c2cccc1n2` [Compound 121, 6-(2-(piperazin-1-yl)ethyl)-2^3-(trifluoromethyl)-4-thia-3,6-diaza-2,5(2,6)-dipyridina-1(1,2)-benzenacycloundecaphane 4,4-dioxide]: the EC50 came to 495 nM. In addition, under setting [1], the Emax is 348%.

Turning to `O=C(O)CCCCCN1CCCCCc2ccccc2-c2nc(ccc2Cl)NS(=O)(=O)c2cccc1n2` [Compound 82, 6-(2^3-chloro-4,4-dioxido-4-thia-3,6-diaza-2,5(2,6)-dipyridina-1(1,2)-benzenacycloundecaphane-6-yl)hexanoic acid], the EC50 stood at 844 nM. For the same compound, the Emax under setting [1] stood at 652%.

Regarding `CN1CCCN(C)c2ncccc2-c2nc(ccc2C(F)(F)F)NS(=O)(=O)c2cccc1n2` [Compound 9, 6,10-dimethyl-2^3-(trifluoromethyl)-4-thia-3,6,10-triaza-1(3,2),2,5(2,6)-tripyridinacyclodecaphane 4,4-dioxide], the EC50 was determined as 1710 nM. Moreover, the Emax under setting [1] worked out at 367%.

As for `CN1CCN(CCN2CCCCCc3ccccc3-c3nc(ccc3C(F)(F)F)NS(=O)(=O)c3cccc2n3)CC1` [Compound 125, 6-(2-(4-methylpiperazin-1-yl)ethyl)-2^3-(trifluoromethyl)-4-thia-3,6-diaza-2,5(2,6)-dipyridina-1(1,2)-benzenacycloundecaphane 4,4-dioxide], the EC50 is 931 nM. The Emax under setting [1] was 162%.

Consider `O=C(O)CCCN1CCCOCc2ccccc2-c2nc(ccc2C(F)(F)F)NS(=O)(=O)c2cccc1n2` [Compound 102, 4-(4,4-dioxido-2^3-(trifluoromethyl)-10-oxa-4-thia-3,6-diaza-2,5(2,6)-dipyridina-1(1,2)-benzenacycloundecaphane-6-yl)butanoic acid], for which the EC50 was found to be 2300 nM.

In the case of `O=S1(=O)Nc2ccc(C(F)(F)F)c(n2)-c2ccccc2OCCCCNc2cccc1n2` [Compound 1, 2^3-(trifluoromethyl)-11-oxa-4-thia-3,6-diaza-2,5(2,6)-dipyridina-1(1,2)-benzenacycloundecaphane 4,4-dioxide], the concentration giving a half-maximal response (EC50) worked out at 978 nM. Moreover, the Emax under setting [1] worked out at 372%.

As for `O=CCCCN1CCCCCc2ccccc2-c2nc(ccc2C(F)(F)F)NS(=O)(=O)c2cccc1n2` [Compound 73, 4-(4,4-dioxido-2^3-(trifluoromethyl)-4-thia-3,6-diaza-2,5(2,6)-dipyridina-1(1,2)-benzenacycloundecaphane-6-yl)butanal], the EC50 was determined as 439 nM. Besides, the Emax under setting [1] came out at 764%.

Consider `O=C(O)CCCCN1CCCCc2ccccc2-c2nc(ccc2C(F)(F)F)NS(=O)(=O)c2cccc1n2` [Compound 80, 5-(4,4-dioxido-2^3-(trifluoromethyl)-4-thia-3,6-diaza-2,5(2,6)-dipyridina-1(1,2)-benzenacyclodecaphane-6-yl)pentanoic acid], for which the EC50 amounted to 1400 nM.

Consider `O=C(O)CCCN1CCOCCCc2ccccc2-c2nc(ccc2C(F)(F)F)NS(=O)(=O)c2cccc1n2` [Compound 88, 4-(4,4-dioxido-2^3-(trifluoromethyl)-9-oxa-4-thia-3,6-diaza-2,5(2,6)-dipyridina-1(1,2)-benzenacyclododecaphane-6-yl)butanoic acid], for which the EC50 was determined as 2070 nM.

Regarding “8-hydroxy-2^3-(trifluoromethyl)-4-thia-3,6-diaza-2,5(2,6)-dipyridina-1(1,2)-benzenacycloundecaphane 4,4-dioxide [Compound 38]”, the EC50 came to 1410 nM. Further, under setting [1], the “DelF508-CFTR-HRP Amax %” value was 224.1%.

As for `O=S1(=O)Nc2ccc(C(F)(F)F)c(n2)-c2ccccc2CCCCNCCNc2cccc1n2` [Compound 131, 2^3-(trifluoromethyl)-4-thia-3,6,9-triaza-2,5(2,6)-dipyridina-1(1,2)-benzenacyclotridecaphane 4,4-dioxide], the EC50 is 3900 nM. Besides, the Emax under setting [1] amounted to 30.7%.

Turning to `O=C(O)CCCN1CCCCCCCc2ccccc2-c2nc(ccc2C(F)(F)F)NS(=O)(=O)c2cccc1n2` [Compound 65, 4-(4,4-dioxido-2^3-(trifluoromethyl)-4-thia-3,6-diaza-2,5(2,6)-dipyridina-1(1,2)-benzenacyclotridecaphane-6-yl)butanoic acid], the half-maximal effective concentration (EC50) was found to be 280 nM.

For `O=S1(=O)Nc2ccc(C(F)(F)F)c(n2)-c2cccnc2NCCCCCNc2cccc1n2` [Compound 6, 2^3-(trifluoromethyl)-4-thia-3,6,12-triaza-1(3,2),2,5(2,6)-tripyridinacyclododecaphane 4,4-dioxide], the EC50 was 1680 nM. In addition, under setting [1], the Emax was determined as 248%.

Turning to `O=C(O)CN1CCCCOc2ccccc2-c2nc(ccc2C(F)(F)F)NS(=O)(=O)c2cccc1n2` [Compound 4, 2-(4,4-dioxido-2^3-(trifluoromethyl)-11-oxa-4-thia-3,6-diaza-2,5(2,6)-dipyridina-1(1,2)-benzenacycloundecaphane-6-yl)acetic acid], the EC50 worked out at 2870 nM. Also, the Emax under setting [1] is 74.4%.

Take `O=S1(=O)Nc2ccc(C(F)(F)F)c(n2)-c2ccccc2CCCCCCCCCN(CCCO)c2cccc1n2` [Compound 45, 6-(3-hydroxypropyl)-2^3-(trifluoromethyl)-4-thia-3,6-diaza-2,5(2,6)-dipyridina-1(1,2)-benzenacyclopentadecaphane 4,4-dioxide]: the EC50 is 361 nM.

Take `O=C(O)CCN1CCCCCc2ccccc2-c2cccc(n2)NS(=O)(=O)c2cccc1n2` [Compound 93, 3-(4,4-dioxido-4-thia-3,6-diaza-2,5(2,6)-dipyridina-1(1,2)-benzenacycloundecaphane-6-yl)propanoic acid]: the EC50 came to 2650 nM. For the same compound, the Emax under setting [1] was 179%.

As to `O=S1(=O)Nc2ccc(C(F)(F)F)c(n2)-c2ccccc2CCCCCCCCN(CCCCO)c2cccc1n2` [Compound 44, 6-(4-hydroxybutyl)-2^3-(trifluoromethyl)-4-thia-3,6-diaza-2,5(2,6)-dipyridina-1(1,2)-benzenacyclotetradecaphane 4,4-dioxide], the EC50 amounted to 159 nM.

Take `CCOC(=O)C(C)(C)CN1CCCCCCc2ccccc2-c2nc(ccc2C(F)(F)F)NS(=O)(=O)c2cccc1n2` [Compound 32, ethyl 3-(4,4-dioxido-2^3-(trifluoromethyl)-4-thia-3,6-diaza-2,5(2,6)-dipyridina-1(1,2)-benzenacyclododecaphane-6-yl)-2,2-dimethylpropanoate]: the EC50 amounted to 295 nM.

For `O=S1(=O)Nc2ccc(Cl)c(n2)-c2ccccc2CCCCCN(CCCO)c2cccc1n2` [Compound 24, 2^3-chloro-6-(3-hydroxypropyl)-4-thia-3,6-diaza-2,5(2,6)-dipyridina-1(1,2)-benzenacycloundecaphane 4,4-dioxide], the EC50 was determined as 165 nM. The Emax under setting [1] was 448%.

Usually EC50 stands for the concentration that produces a half-maximal response.

The values are drawn from US20220071971A1, “MACROCYCLIC COMPOUNDS AND THEIR USE IN THE TREATMENT OF DISEASE” (NOVARTIS AG, priority 2018, published 2022).
